According to US20250082633A1, “COMPOUNDS AND METHODS FOR MODULATING SPLICING” (REMIX THERAPEUTICS INC., priority 2021, published 2025):
pIC50: −log10 of the molar value. Counter-ions that a name gives are not always drawn. Like-named read-outs stand apart in the source and are kept apart here.

Key:
Assay type in all cases: cell-based
[1] = system: MYB mRNA; assay: RT-qPCR splicing assay, MYB canonical (CJ) and alternative (AJ) junction mRNA; details: Homo sapiens; for pIC50: read-out: MYB CJ IC50; for AC50: read-out: MYB AJ AC50
Method: (§1) Compounds described herein were used to modulate RNA transcript abundance in cells. The expression of a target mRNA was measured by detecting the formation of an exon-exon junction in the canonical transcript (CJ). A compound mediated exon-inclusion event was detected by observing an increase in formation of a new junction with an alternative exon (AJ). Real-time qPCR assays were used to detect these splicing switches and interrogate the potency of various compounds towards different target genes. A high-throughput real time quantitative PCR (RT-qPCR) assay was developed to measure these two isoforms of the mRNA (CJ and AJ) for exemplary genes, such as HTT, SMN2, and MYB, together with a control housekeeping gene, GAPDH or GUSB or PPIA, used for normalization. Briefly, the A673 or K562 cell line was treated with various compounds described herein (e.g., compounds of Formula (I)). After treatment, the levels of the HTT, MYB, or SMN2 mRNA targets were determined from each sample of cell lysate by cDNA synthesis followed by qPCR.
• Cells-to-CT 1-step kit: ThermoFisher A25602, Cells-to-CT lysis reagent: ThermoFisher 4391851C, TaqMan™ Fast Virus 1-Step Master Mix: ThermoFisher 4444436 • GAPDH: VIC-PL, ThermoFisher 4326317E (Assay: Hs99999905_m1)—used for K562/suspension cell lines • GUSB: VIC-PL, ThermoFisher 4326320E (Assay: Hs99999908_m1)—used for K562/suspension cell lines • PPIA: VIC-PL, ThermoFisher 4326316E (Assay: Hs99999904_m1)—used for A673/adherent cell lines
(§2) The A673 cell line was cultured in DMEM with 10% FBS. Cells were diluted with full growth media and plated in a 96-well plate (15,000 cells in 100 ul media per well). The plate was incubated at 37° C. with 5% CO2 for 24 hours to allow cells to adhere. An 11-point 3-fold serial dilution of the compounds was made in DMSO then diluted in media in an intermediate plate. Compounds were transferred from the intermediate plate to the cell plate with the top dose at a final concentration of 10 uM in the well. Final DMSO concentration was kept at or below 0.25%. The cell plate was returned to the incubator at 37° C. with 5% CO2 for an additional 24 hours.
(§3) The K562 cell line was cultured in IMDM with 10% FBS. For K562, cells were diluted with full growth media and plated in either a 96-well plate (50,000 cells in 50 uL media per well) or a 384-well plate (8,000-40,000 cells in 45 uL media per well). An 11-point 3-fold serial dilution of the compounds were made in DMSO then diluted in media in an intermediate plate. Compound was transferred from the intermediate plate to the cell plate with the top dose at a final concentration of 10 uM in the well. Final DMSO concentration was kept at or below 0.25%. Final volume was 100 uL for 96-well plate and 50 uL for 384-well plate. The cell plate was then placed in an incubator at 37° C. with 5% CO2 for 24 hours.
(§4) The cells were then gently washed with 50 uL-100 uL cold PBS before proceeding to addition of lysis buffer. 30 uL-50 μL of room temperature lysis buffer with DNAse I (and optionally RNAsin) was added to each well. Cells were shaken/mixed thoroughly at room temperature for 5-10 minutes for lysis to take place and then 3 uL-5 μL of room temperature stop solution was added and wells were shaken/mixed again. After 2-5 minutes, the cell lysate plate was transferred to ice for RT-qPCR reaction setup. The lysates could also be frozen at −80° C. for later use.
In some cases, a direct lysis buffer was used. An appropriate volume of 3× lysis buffer (10 mM Tris, 150 mM NaCl, 1.5%-2.5% Igepal and 0.1-1 U/uL RNAsin, pH 7.4) was directly added to either K562 or A673 cells in media and mixed by pipetting 3 times. The plates were then incubated at room temperature with shaking/rocking for 20-50 minutes to allow for lysis to take place. After this time, the cell lysate plate was transferred to ice to set up for the RT-qPCR reactions. The lysates could also be frozen at −80° C. for later use. […]

[2] = system: K562 cells; assay: Cell Titer Glo 2.0 cell viability assay; details: Homo sapiens, 500 cells/well, 72 hours
Method: Compounds described herein were screened for toxicity in K562 (human chronic myelogenous leukemia) and SH-SY5Y (human neuroblastoma) cells using a Cell Titer Glo 2.0 assay. • Promega CellTiter-Glo® 2.0 Cell Viability Assay (cat #G9241) • Corning 384-well TC-treated microplates (cat #3570) Cells were plated at 500 cells/well (K562 cells) in 45 μL of IMDM supplemented with 10% FBS in a 384-well opaque plate. Wells containing only medium were used as a blank control. Test compounds (e.g., compounds of Formula (I), (II), or (III)) were first serially diluted in DMSO then diluted 1:100 with IMDM+10% FBS. The final concentration of DMSO was 0.1% in each well. The cells were incubated for 72 hours at 37° C. and 5% CO2 before assaying with Cell Titer Glo 2.0 reagent.

[3] = system: SMN2 mRNA; assay: RT-qPCR splicing assay, gene panel, SMN2 canonical junction (CJ) mRNA; details: Homo sapiens, read-out: SMN2 CJ IC50
Method: as §1, §2, §3, §4
In some cases, a direct lysis buffer was used. An appropriate volume of 3× lysis buffer (10 mM Tris, 150 mM NaCl, 1.5%-2.5% Igepal and 0.1-1 U/uL RNAsin, pH 7.4) was directly added to either K562 or A673 cells in media and mixed by pipetting 3 times. The plates were then incubated at room temperature with shaking/rocking for 20-50 minutes to allow for lysis to take place. After this time, the cell lysate plate was transferred to ice to set up for the RT-qPCR reactions. The lysates could also be frozen at −80° C. for later use.
To set up 10 uL RT-qPCR reactions, cell lysates were transferred to 384-well qPCR plates containing the master mix according to the table below. The plates were sealed, gently vortexed, and spun down before the run. The volumes were adjusted accordingly in some instances where the reaction was carried in 20 μL. The table below summarizes the components of the RT-qPCR reactions:
The RT-qPCR reaction was performed using a QuantStudio (ThermoFisher) under the following fast cycling conditions. […]

[4] = decrease in CJ mRNA levels, larger panel of genes, Table 3
[5] = decrease in canonical junction mRNA, A673 or K562 cells, 24 hours treatment, Table 2
[6] = increase in alternative junction mRNA, A673 or K562 cells, 24 hours treatment, Table 2

Compound | pIC50 [1, 4] | pIC50 [1, 5] | AC50 [1, 6] | GI50 [2] | pIC50 [3, 4] | AC50 ([1]; 24 h) | pIC50 ([1]; 24 h) | pIC50 [1] | pIC50 [3]
Cn1cc2cc(-c3cc(F)c4nn(C5CCNC6(CC6)C5)cc4c3)cc(F)c2n1 (stereo not shown) [Compound 108, 2-(4-azaspiro[2.5]octan-7-yl)-7-fluoro-5-(7-fluoro-2-methyl-indazol-5-yl)indazole] | 6.00 to 7.00 | 6.00 to 7.00 | 1000 to 10000 nM | 100 to 1000 nM | 6.00 to 7.00 | – | – | – | –
Fc1cc(-c2ccc3ncccc3c2)cc2cn(C3CCNCC3)nc12 [Compound 162, 6-[7-fluoro-2-(4-piperidyl)indazol-5-yl]quinoline] | < 5.00 | < 5.00 | > 10000 nM | 1000 to 10000 nM | 5.00 to 6.00 | – | – | – | –
Cc1cc(-c2cc(F)c3nn(C4CCNCC4)cc3c2)cc2cn(C)nc12 [Compound 133, 5-(2,7-dimethylindazol-5-yl)-7-fluoro-2-(4-piperidyl)indazole] | 6.00 to 7.00 | 6.00 to 7.00 | 100 to 1000 nM | 100 to 1000 nM | > 7.00 | – | – | – | –
Fc1cc(-c2ccc3cnccc3c2)cc2cn(C3CCNCC3)nc12 [Compound 161, 6-[7-fluoro-2-(4-piperidyl)indazol-5-yl]isoquinoline] | 5.00 to 6.00 | 5.00 to 6.00 | 1000 to 10000 nM | 1000 to 10000 nM | 6.00 to 7.00 | – | – | – | –
Cc1cn2nc(-c3cc(F)c4nn(C5CCNC6(CC6)C5)cc4c3)cc(C)c2n1 (stereo not shown) [Compound 171, 6-[2-(4-azaspiro[2.5]octan-7-yl)-7-fluoro-indazol-5-yl]-2,8-dimethyl-imidazo[1,2-b]pyridazine] | 6.00 to 7.00 | 6.00 to 7.00 | 100 to 1000 nM | 100 to 1000 nM | > 7.00 | – | – | – | –
Cc1nc2c(C)cc(-n3cc4cc(N5CCNCC5)cc(F)c4n3)cc2o1 [Compound 119, 6-(7-fluoro-5-piperazin-1-yl-indazol-2-yl)-2,4-dimethyl-1,3-benzoxazole] | < 5.00 | < 5.00 | > 10000 nM | > 10000 nM | 5.00 to 6.00 | – | – | – | –
Cc1nc2c(C)c(O)c(-c3cc(F)c4nn(C5CCNCC5)cc4c3)cc2o1 [Compound 123, 6-[7-fluoro-2-(4-piperidyl)indazol-5-yl]-2,4-dimethyl-1,3-benzoxazol-5-ol] | 5.00 to 6.00 | 5.00 to 6.00 | 1000 to 10000 nM | 1000 to 10000 nM | 6.00 to 7.00 | – | – | – | –
Cn1cc2cc(-c3cc(F)c4nn(C5CCNCC5)cc4c3)ccc2n1 [Compound 145, 7-fluoro-5-(2-methylindazol-5-yl)-2-(4-piperidyl)indazole] | 5.00 to 6.00 | 5.00 to 6.00 | 100 to 1000 nM | 1000 to 10000 nM | > 7.00 | – | – | – | –
Cc1cn2nc(-c3ccc4nn(C5CCNCC5)cc4c3)cc(C)c2n1 [Compound 192, 2,8-dimethyl-6-[2-(4-piperidyl)indazol-5-yl]imidazo[1,2-b]pyridazine] | 6.00 to 7.00 | 6.00 to 7.00 | 100 to 1000 nM | 100 to 1000 nM | > 7.00 | – | – | – | –
Cc1cn2cc(-c3cc(F)c4nn(C5CCNCC5)cc4c3)cc(Cl)c2n1 [Compound 127, 5-(8-chloro-2-methylimidazo[1,2-a]pyridin-6-yl)-7-fluoro-2-(piperidin-4-yl)-2H-indazole hydrochloride salt] | 6.00 to 7.00 | 6.00 to 7.00 | 100 to 1000 nM | 100 to 1000 nM | > 7.00 | – | – | – | –
Cc1c(O)c(-c2ccc3nn(C4CCNCC4)cc3n2)cc2cn(C)nc12 [Compound 109, 2,7-dimethyl-5-[2-(4-piperidyl)pyrazolo[4,3-b]pyridin-5-yl]indazol-6-ol] | 6.00 to 7.00 | 6.00 to 7.00 | 100 to 1000 nM | 100 to 1000 nM | > 7.00 | – | – | – | –
Cc1cn2nc(-c3cc4cn(C5CCNCC5)nc4c(OCc4ccccc4)n3)cc(C)c2n1 [Compound 153, 6-[7-benzyloxy-2-(4-piperidyl)pyrazolo [3,4-c]pyridin-5-yl]-2,8-dimethyl-imidazo[1,2-b]pyridazine] | 5.00 to 6.00 | 5.00 to 6.00 | > 10000 nM | – | < 5.00 | – | – | – | –
Cc1cn2nc(-c3cc(F)c4nn(C5CCN(C)CC5)cc4c3)cc(C)c2n1 [Compound 150, 6-[7-fluoro-2-(1-methyl-4-piperidyl)indazol-5-yl]-2,8-dimethyl-imidazo[1,2-b]pyridazine] | 6.00 to 7.00 | 6.00 to 7.00 | 100 to 1000 nM | – | > 7.00 | – | – | – | –
Cc1cn2nc(-c3cc(F)c4nn(C5CCN(C6CCC6)CC5)cc4c3)cc(C)c2n1 [Compound 151, 6-[2-(1-cyclobutyl-4-piperidyl)-7-fluoro-indazol-5-yl]-2,8-dimethyl-imidazo [1,2-b] pyridazine] | – | – | – | – | – | 100 to 1000 nM | > 7.00 | > 7.00 | > 7.00
Cc1cn2nc(-c3cc4cn(C5CCNCC5)nc4c(O)n3)cc(C)c2n1 [Compound 139, 5-(2,8-dimethylimidazo[1,2-b]pyridazin-6-yl)-2-(4-piperidyl)-6H-pyrazolo[3,4-c]pyridin-7-one] | 6.00 to 7.00 | 6.00 to 7.00 | 100 to 1000 nM | – | > 7.00 | – | – | – | –
Cn1cc2cc(-c3cc(Cl)c4nn(C5CCNCC5)cc4n3)c(O)cc2n1 [Compound 141] | < 5.00 | < 5.00 | > 10000 nM | – | 5.00 to 6.00 | – | – | – | –
Cc1cn2nc(-c3cc(F)c4nn(C5CCN(CCF)CC5)cc4c3)cc(C)c2n1 [Compound 152] | 6.00 to 7.00 | 6.00 to 7.00 | 100 to 1000 nM | – | > 7.00 | – | – | – | –
